Consider one compound from PMC11488110 (Theranostics, 2024).

Each structure is given as a SMILES string. Bounds are passed on as bounds.

In one assay the target is T1, hPPARα (Homo sapiens, UniProt Q07869).
T1 sequence (Q07869 1-468): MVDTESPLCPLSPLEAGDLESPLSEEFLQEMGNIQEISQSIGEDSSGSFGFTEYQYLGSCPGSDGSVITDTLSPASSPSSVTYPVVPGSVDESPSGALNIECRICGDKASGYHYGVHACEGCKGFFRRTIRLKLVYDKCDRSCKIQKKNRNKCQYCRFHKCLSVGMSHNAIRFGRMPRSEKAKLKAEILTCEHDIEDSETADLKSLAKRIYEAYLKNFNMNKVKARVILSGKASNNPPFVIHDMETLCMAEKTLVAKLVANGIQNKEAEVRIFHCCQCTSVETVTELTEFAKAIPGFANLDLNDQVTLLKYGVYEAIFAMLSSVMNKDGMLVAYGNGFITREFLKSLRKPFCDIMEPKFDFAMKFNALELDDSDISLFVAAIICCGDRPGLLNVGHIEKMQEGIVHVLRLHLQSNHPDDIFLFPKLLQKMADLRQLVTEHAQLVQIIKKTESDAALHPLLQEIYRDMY
Put plainly: In vitro co-transfection (PPRE-luciferase) assay in CV-1 cells, hPPARα. It is filed as cell-based. The following applies: 24 h, read-out: Potency (EC50) hPPARα.

In the next assay the target is T2, hERG channel (Homo sapiens, UniProt Q12809).
T2 construct: purchased Invitrogen PV5365
T2 sequence (Q12809 whole entry): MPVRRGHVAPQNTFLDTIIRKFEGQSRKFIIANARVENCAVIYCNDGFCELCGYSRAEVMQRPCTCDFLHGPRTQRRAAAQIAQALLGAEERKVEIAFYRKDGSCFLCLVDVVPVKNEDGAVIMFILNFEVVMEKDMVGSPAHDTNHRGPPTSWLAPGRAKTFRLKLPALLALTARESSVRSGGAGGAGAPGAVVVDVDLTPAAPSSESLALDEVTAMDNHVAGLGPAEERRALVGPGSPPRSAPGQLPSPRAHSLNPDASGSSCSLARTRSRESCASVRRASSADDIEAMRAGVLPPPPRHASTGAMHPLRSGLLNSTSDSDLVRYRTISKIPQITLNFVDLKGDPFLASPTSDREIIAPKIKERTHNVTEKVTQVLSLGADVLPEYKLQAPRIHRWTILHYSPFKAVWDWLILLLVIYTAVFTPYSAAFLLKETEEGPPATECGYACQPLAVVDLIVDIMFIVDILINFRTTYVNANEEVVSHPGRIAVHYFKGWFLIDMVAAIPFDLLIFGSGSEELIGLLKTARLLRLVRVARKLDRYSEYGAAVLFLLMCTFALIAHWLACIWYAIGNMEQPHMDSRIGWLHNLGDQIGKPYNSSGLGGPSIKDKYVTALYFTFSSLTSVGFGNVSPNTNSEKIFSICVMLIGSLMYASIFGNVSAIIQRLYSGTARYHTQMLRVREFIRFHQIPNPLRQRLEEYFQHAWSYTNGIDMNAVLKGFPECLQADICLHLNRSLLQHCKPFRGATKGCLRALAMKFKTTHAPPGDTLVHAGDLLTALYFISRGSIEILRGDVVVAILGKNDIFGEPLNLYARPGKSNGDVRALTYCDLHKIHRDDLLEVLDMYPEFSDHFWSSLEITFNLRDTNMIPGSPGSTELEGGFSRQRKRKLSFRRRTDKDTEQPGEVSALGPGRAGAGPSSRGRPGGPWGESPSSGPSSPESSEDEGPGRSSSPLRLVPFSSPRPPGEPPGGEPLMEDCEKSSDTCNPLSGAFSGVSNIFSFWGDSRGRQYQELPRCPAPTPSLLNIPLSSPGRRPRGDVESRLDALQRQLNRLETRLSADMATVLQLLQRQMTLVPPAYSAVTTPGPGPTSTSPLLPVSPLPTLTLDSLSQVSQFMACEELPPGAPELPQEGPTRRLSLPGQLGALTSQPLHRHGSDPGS
Put plainly: biochemical. As to conditions: fluorescence polarization binding assay. The protocol:
An hERG channel binding assay was performed using the Predictor hERG Fluorescence Polarization Assay Kit (PV5365, Invitrogen). […] Fluorescence intensity (excitation at 530 nm, emission at 590 nm) was measured using a multi-mode microplate reader Synergy Neo (Biotek). […]
Ta b l e S2 . CYP inhibition, microsomal stability, and hERG in hibition of 5a .
CYP inhibitiona Microsomal stabilityb
( % of c ont rol ac ti vit y) (% of remaining compound) hERG inhibitionc (IC50, μ M) […]
aCytochrome P450 (CYP450) enzyme activity was measured by incubating CYP450 enzyme isotype-specific substrates and liver microsomes in the presence of the test compound (10 μM) for 15 min. Data are expressed as percent of CYP enzyme activity relative to that of t he v ehicle-treated control. bThe test compound was incubated with microsomes for 30 min and the percentage of the remaining compound was measured via liquid chromatography- tandem mass spectrometry (LC-MS/MS). cHuman Ether-à -go -go -related gene (hERG) channel binding assay was performed using a predictor hERG fluorescence polarization assay (Invitrogen); IC50 values were calculated with non-linear regression fit with four parameters. a- cThe results of these three assays were obtained through the in vitro ADME/Tox study service of KMEDIhub, a contract research organization (CRO). The reported measurements are the mean of […]

In the next assay the test system is BV-2 microglial cells. Put plainly: LPS-induced inflammatory responses in BV-2 microglia. It is filed as cell-based, mouse.
For another assay, the system named is APP/PS1 mice. Put plainly: APP/PS1 transgenic mouse model of AD. It is filed as in vivo. The following applies: 30 mg/kg/day p.o. 10 days. As to the method:
All mice and rats were housed in a temperature- and humidity-controlled environment with a 12 h light/dark cycle and ad libitum access to food and water. All procedures were performed in accordance with the National Institutes of Health Guide for the Care and Use of Laboratory Animals and approved by the Institutional Animal Care and Use Committee of Korea Institute of Science and Technology (KIST-IACUC-2022-020-1). For the pharmacokinetics study, Sprague-Dawley rats were purchased from Koatech (South Korea) and maintained in a specific pathogen-free facility (Laboratory Animal Center, Daegu-Gyeongbuk Medical Innovation Foundation). For the LPS-induced neuroinflammation model or scopolamine-induced AD model, male C57BL/6N mice were obtained from DBL (South Korea). APP/PS1 (APPswe/PSEN1dE9) transgenic mice from the Jackson Laboratory (USA; stock number 004462) were maintained as hemizygotes on the C57BL/6; C3H genetic background at the Research Animal Resources Center of KIST. 10-week-old C57BL/6N and 12-month-old APP/PS1 were used in behavioral experiments with sex- and age-matched controls.
For the neuroinflammation model, C57BL/6N mice were intraperitoneally injected daily with 0.3 mg/kg LPS (Sigma-Aldrich, L2880) dissolved in saline (0.9% sodium chloride), for 6 consecutive days. In a non-genetic AD model, we induced acute memory deficits in C57BL/6N mice by intraperitoneal injection with 1 mg/kg of scopolamine hydrobromide (Sigma-Aldrich, S0929) dissolved in saline, 30 min before the behavioral tests. At the end of the experimental period, mice were deeply anesthetized with 2% avertin (500 mg/kg, i.p.) and transcardially perfused with saline. Brains were collected from each mouse, and the hippocampus and cortex were isolated and stored at -80 °C for biochemical analysis. Brain hemispheres were postfixed in 4% paraformaldehyde overnight at 4 °C, then placed in 30% sucrose solution for 48 h at 4 °C for cryoprotection and used for histological analysis.
The Y-maze test was used to evaluate the spatial learning and memory performance of mice. The Y-maze apparatus consisted of three identical arms disposed at a 120° angle from each other (41 cm long and 7 cm wide with 15 cm high walls). Mice were placed at the end of one arm and allowed to move freely in the maze for 10 min. The arm entries were manually recorded. Spontaneous alternation was defined as consecutive entries into three different arms and the percentage of alternation was calculated based on the following equation: alternation (%) = number of alternations/(total arm entries - 2) × 100.
Fixed mouse brains were embedded in an optimal cutting temperature compound (Leica, 3801480) and serially sectioned at 30 μm in a cryostat (Thermo Fisher Scientific, HM525 NX). Coronal hippocampal sections were stored in a storage solution (30% glycerol, 30% ethylene glycol, and 30% 0.2 M sodium phosphate buffer, pH 7.2) at 4 °C until use. After washing three times with PBS, the sections were blocked for 1 h with blocking buffer (0.3% Triton X-100 and 4% normal donkey serum in 0.1 M PBS) at room temperature, followed by incubation with primary antibodies in blocking buffer overnight at 4 °C. After washing with PBS, the sections were incubated with corresponding fluorescent secondary antibodies (Jackson ImmunoResearch, Alexa Fluor) for 1 h at room temperature and washed three times with PBS. Nuclei were counterstained with 4′,6-diamidino-2-phenylindole (DAPI; Invitrogen) during the second washing step. Sections were mounted with fluorescent mounting medium (Dako). Fluorescent images were acquired with the ImageXpress Pico (Molecular Devices; 20× magnification) or LSM 800 confocal microscope (Carl Zeiss; 40× magnification). Primary antibodies used are described in Table S6.
Z-stack projected images (20 μm thickness with a step size of 2 μm or 4 μm) were analyzed using the ImageJ software (NIH). To quantify glial reactivity, the mean fluorescence intensity of GFAP or IBA1 was measured. […]

Regarding `Cc1cc(SCc2[se]c(-c3ccc(C(F)(F)F)cc3)nc2C)ccc1OCC(=O)O` [Compound 5a, {2-Methyl-4-[4-methyl-2-(4-trifluoromethyl-phenyl)-selenazol-5-yl-methylsulfanyl]-phenoxy}-acetic acid], at hPPARα, the EC50 is > 10 µM. For the same compound, the “hERG inhibition (IC50)” value on hERG channel is given as “low inhibitory effects”. Moreover, the IC50 on hERG channel (read-out: hERG inhibition (IC50)) was determined as 9 µM. Moreover, in the assay on BV-2 microglial cells (BV-2, LPS 0.2 μg/mL), the “LPS-induced mRNA and protein levels of iNOS, TNF-α and IL-6” value was “reduced the LPS-induced increases”. Besides, in the assay on BV-2 microglial cells (pretreatment 3 h, LPS 0.2 μg/mL 24 h), the “LPS-induced NO production (nitrite)” value is reported as “suppressed”. In addition, in the assay on BV-2 microglial cells (pretreatment 6 h, LPS 1 h), the “LPS-induced phosphorylation of NF-κB p65” value was “prevented the increase”. Further, in the assay with APP/PS1 mice, the “Astrocytic hypertrophy (Sholl analysis)” value was “significantly suppressed”; the “BACE1 levels in cortical homogenates” value is given as “significantly diminished”; the “GFAP and IBA1 immunoreactivity, dentate gyrus” value is listed as “significantly inhibited”; the “Gfap mRNA in hippocampus homogenates” value is reported as “reduced levels”. Also, in the assay on APP/PS1 mice, the “Number and area of thioflavin-S Aβ plaques, cortex and hippocampus” value is “significant reduction in the number and area of Aβ plaques”; the “Number of microglia per plaque” value is listed as “significant increase”; the “Overall tau hyperphosphorylation in the brain” value was “inhibiting overall tau hyperphosphorylation”; the “Phagolysosome area within plaque-associated microglia and internalized Aβ area” value is “increased the phagolysosome area”. Moreover, in the assay on APP/PS1 mice, the “Plaque-associated BACE1 accumulation, hippocampus” value is “significantly reduced”; the Y-maze spontaneous alternation result was “prevented the decrease in alternation percentage”; the “Y-maze total number of arm entries” value was “without inducing any changes”. Also, in the assay on APP/PS1 mice (not significant), the “AT8-positive phosphorylated tau around Aβ plaques” value is reported as “tend to decrease”.
